Source: publication PMC6645248 (ACS Omega, 2018)

Experiments:
Cyt c = Cyt c (Equus caballus, UniProt P00004); type: biochemical, equine; details: for concentration at which an effect on the Cyt c-catalysed reaction starts: [Cyt c] = 15 μg/mL
[1] = target: T1, horseradish peroxidase (HRP) (Armoracia rusticana, UniProt P00433); assay: Peroxide-induced inhibition; type: biochemical; details: [LH-] = 750 μM; [HRP] = 2 μg/mL; pH 9
T1 sequence (P00433 31-338 limits assumed): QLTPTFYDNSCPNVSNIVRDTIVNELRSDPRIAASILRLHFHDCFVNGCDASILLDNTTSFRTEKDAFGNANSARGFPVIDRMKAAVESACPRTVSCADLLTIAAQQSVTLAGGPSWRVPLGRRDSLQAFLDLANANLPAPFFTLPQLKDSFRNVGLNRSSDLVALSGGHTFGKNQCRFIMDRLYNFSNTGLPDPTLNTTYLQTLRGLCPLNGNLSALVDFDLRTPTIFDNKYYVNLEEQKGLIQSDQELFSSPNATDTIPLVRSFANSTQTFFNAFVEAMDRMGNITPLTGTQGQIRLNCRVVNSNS

HRP [2] = target: T2, HRP (Armoracia rusticana, UniProt P00433); details: [H2O2] of 17.6 mM; cited from earlier work
T2 sequence (P00433 31-338 limits assumed): T1 sequence (P00433 31-338 limits assumed)

HRP [3] = target: T2, HRP; assay: Enhancement of the HRP-catalysed luminol reaction by aromatic hydrogen donors; type: biochemical, horseradish; details: [H2O2] = 1.1 mM; [LH-] = 750 μM; pH 9
[4] = [LH-] = 750 μM, [H2O2] = 1.1 mM, pH 9

Sequence of Cyt c (P00004 whole entry): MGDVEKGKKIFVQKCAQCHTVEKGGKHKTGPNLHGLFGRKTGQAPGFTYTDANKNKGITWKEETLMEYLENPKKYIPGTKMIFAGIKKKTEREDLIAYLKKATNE

Compound | concentration at which an effect on the Cyt c-catalysed reaction starts (Cyt c; [4]) | kind of quenching of Cyt c-catalysed luminescence (kinetics) (Cyt c; [Cyt c] = 20 μg/mL, [LH-] = 750 μM, [H2O2] = 1.1 mM, pH 9) | protection of HRP against high [H2O2] (shift of peroxide inhibition) [1] | IC50 (Cyt c) [µM] | concentration for maximal enhancement (HRP [2]) [mM] | concentration for maximal enhancement of the HRP-catalysed reaction (HRP [3])
NC(=O)C1=CN([C@@H]2O[C@H](COP(=O)([O-])OP(=O)([O-])OC[C@H]3O[C@@H](n4cnc5c(N)ncnc54)[C@H](O)[C@@H]3O)[C@@H](O)[C@H]2O)C=CC1.[Na+].[Na+] [NADH, Nicotinamide–adenine–dinucleotide disodium] | 80 µM | permanent luminescence quenching |  |  |  | 
N[C@@H](CCC(=O)N[C@@H](CS)C(=O)NCC(=O)O)C(=O)O [GSH, glutathione] | about 10 μM |  | does not exert a protective effect on HRP | 41 |  | 
Oc1ccc(I)cc1 [IP, iodophenol] |  |  |  |  | 4 | around 200 μM
